This test in a line: Calibration of the Working Reagent at 660 nm (aqueous hemoglobin solutions). Type of test: biochemical. To be noted: 2 minutes, 37° C. How it is done:
To prepare the solution-based assay composition, 14 mL of stock reagent B was poured into 1 mL of stock reagent A and mixed gently for 1-2 minutes by stirring. The combined A/B reagent was poured into 1 L of stock reagent C and mixed gently by stirring for approximately 30 minutes and allowed to stand at room temperature overnight prior to use. This prepared a working solution-based assay composition to be used as a working reagent.
A solution-based assay composition prepared according to Example 1 was used to calibrate its detectable color change having an absorbance at about 660 nm. Aqueous solutions of hemoglobin were prepared in the concentrations of 0.055, 0.060, 0.065, 0.068, 0.070, and 0.075 mg/dL. Twenty-one replicates of each hemoglobin solution were run using the following procedure.
The solution-based assay composition (or working reagent) and the hemoglobin solutions were equilibrated at room temperature before use. A 15 microliter sample of a hemoglobin solution and 250 microliters of the working reagent were transferred to the sample wheel of a Cobas-Bio autoanalyzer which was equilibrated at 37° C. The sample and the working reagent were mixed by rotation of the sample wheel. After the sample and working reagent were allowed to react for 2 minutes, the absorbance of the resulting solution was measured at 660 nm. The calibration curve shown in FIG. 1 was generated by plotting absorbance versus concentration data shown in Table 1 below and using standard regression analysis. This calibration curve can then be used to quantitatively assay the amount of hemoglobin in a bodily fluid.

Regarding HEMOGLOBIN, the “ABSORBANCE, 660 nm” value runs as follows: (hemoglobin 0.055 mg/dL, 15 microliter sample + 250 microliters working reagent) 0.1139; (hemoglobin 0.06 mg/dL) 0.1319; (hemoglobin 0.065 mg/dL) 0.1474; (hemoglobin 0.0675 mg/dL) 0.1557; (hemoglobin 0.070 mg/dL) 0.1719; (hemoglobin 0.075 mg/dL) 0.1877.

For the origin of these results see patent US5885789A, “Solution-based assay for peroxidatively-active substances in bodily fluids” (STC Technologies Incorporated, priority 1997, dated 1999).
